According to publication PMC11721856, “Searching for novel MDM2/MDMX dual inhibitors through a drug repurposing approach” (Journal of Enzyme Inhibition and Medicinal Chemistry, 2023):

Columns and labels:
[1] = target: T1, MDM2 (Homo sapiens, UniProt Q00987); test: competitive fluorescence polarisation, % inhibition at […]; details: read-out: Protein binding inhibition at 1 μM(%) ^a / MDM2
T1 construct: residues 1–110

[2] = target: T2, MDMX (Homo sapiens, UniProt O15151); test: as above; details: read-out: Protein binding inhibition at 1 μM(%) ^a / MDMX
T2 construct: gene MDM4; residues 1–110
T2 sequence (O15151 1-110): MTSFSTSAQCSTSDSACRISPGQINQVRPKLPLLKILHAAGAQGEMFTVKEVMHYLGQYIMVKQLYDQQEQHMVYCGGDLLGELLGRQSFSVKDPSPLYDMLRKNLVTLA

inhibition at 1 µM [1] [%]	inhibition at 1 µM [2] [%]	Structure (SMILES)
52.6 ± 2.1		O=C1Nc2cc(Cl)ccc2C1=C(c1ccccc1)N1CCCC1 [H7, 6-chloro-3-(phenyl(pyrrolidin-1-yl)methylene)indolin-2-one]
72.8 ± 5.6	57.9 ± 6.1	COC(=C1C(=O)Nc2cc(Cl)ccc21)c1ccccc1 [H3, 6-chloro-3-(methoxy(phenyl)methylene) indolin-2-one]
50.3 ± 2.5		COC(=C1C(=O)Nc2cc(Cl)c(F)cc21)c1ccccc1 [H6, 6-chloro-5-fluoro-3-(methoxy(phenyl)methylene) indolin-2-one]
56.8 ± 1.9		COC(=C1C(=O)Nc2cc(F)ccc21)c1ccccc1 [H5, 6-fluoro-3-(methoxy(phenyl)methylene) indolin-2-one]
